We go through 31 molecules from US11066396B2 (priority 2016, dated 2021).

Test [1] concerns the target HDAC1 (Homo sapiens (Human), UniProt Q13547). The conditions noted are these: read-out: HDAC1 IC50.
The target of test [2] is HDAC8 (Homo sapiens (Human), UniProt Q9BY41). The conditions noted are these: read-out: HDAC8 IC50.
Chain of HDAC8 (Q9BY41 whole entry): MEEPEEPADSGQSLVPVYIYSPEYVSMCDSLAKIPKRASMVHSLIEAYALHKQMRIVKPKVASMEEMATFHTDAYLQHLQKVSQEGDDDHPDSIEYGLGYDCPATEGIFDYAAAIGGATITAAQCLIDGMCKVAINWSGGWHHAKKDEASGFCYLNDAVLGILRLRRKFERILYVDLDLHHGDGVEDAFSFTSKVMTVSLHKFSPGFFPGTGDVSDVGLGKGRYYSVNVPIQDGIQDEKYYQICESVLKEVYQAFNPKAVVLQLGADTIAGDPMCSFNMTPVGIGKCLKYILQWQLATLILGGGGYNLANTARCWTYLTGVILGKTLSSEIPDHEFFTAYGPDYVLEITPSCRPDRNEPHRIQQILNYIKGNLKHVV

Chain of HDAC1 (Q13547 whole entry): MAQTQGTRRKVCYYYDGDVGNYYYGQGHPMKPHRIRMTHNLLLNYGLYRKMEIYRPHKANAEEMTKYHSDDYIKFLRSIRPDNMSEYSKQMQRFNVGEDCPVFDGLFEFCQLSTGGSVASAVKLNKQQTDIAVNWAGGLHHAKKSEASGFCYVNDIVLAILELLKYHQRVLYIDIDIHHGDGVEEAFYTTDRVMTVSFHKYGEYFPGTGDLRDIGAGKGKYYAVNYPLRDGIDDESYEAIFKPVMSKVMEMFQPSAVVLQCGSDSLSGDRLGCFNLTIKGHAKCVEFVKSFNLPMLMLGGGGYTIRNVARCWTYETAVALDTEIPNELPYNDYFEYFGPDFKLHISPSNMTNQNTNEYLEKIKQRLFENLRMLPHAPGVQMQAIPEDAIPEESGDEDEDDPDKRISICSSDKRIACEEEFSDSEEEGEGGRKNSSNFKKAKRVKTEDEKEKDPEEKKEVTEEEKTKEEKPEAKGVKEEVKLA

Consider `O=C1CCc2cccnc2N1Cc1ccc(-c2noc(C(F)(F)F)n2)cn1` [Example 330, 1-({5-[5-(trifluoromethyl)-1,2,4-oxadiazol-3-yl]pyridin-2-yl}methyl)-3,4-dihydro-1,8-naphthyridin-2(1H)-one], for which the IC50 was found to be 3700 nM in test [1] and 18 µM in test [2].

For the molecule `CC(C)(C)OC(=O)[C@@H]1CCC(=O)N1c1ccc(-c2noc(C(F)(F)F)n2)c(F)c1` [Example 331, tert-butyl 1-{3-fluoro-4-[5-(trifluoromethyl)-1,2,4-oxadiazol-3-yl]phenyl}-5-oxo-L-prolinate], the IC50 was determined as 4900 nM in test [1] and 19 µM in test [2].

Consider `O=C1OC[C@@H](c2ccccc2)N1c1ccc(-c2noc(C(F)(F)F)n2)c(F)c1` [Example 332, (4R)-3-{3-fluoro-4-[5-(trifluoromethyl)-1,2,4-oxadiazol-3-yl]phenyl}-4-phenyl-1,3-oxazolidin-2-one], for which the figures for the IC50 in test [1] and in test [2] were 4500 nM and 4.5 µM, respectively.

In the case of `Cc1noc([C@@H]2CCC(=O)N2c2ccc(-c3noc(C(F)(F)F)n3)c(F)c2)n1` [Example 333, (5S)-1-{3-fluoro-4-[5-(trifluoromethyl)-1,2,4-oxadiazol-3-yl]phenyl}-5-(3-methyl-1,2,4-oxadiazol-5-yl)pyrrolidin-2-one], the IC50 came to 3300 nM in test [1] and 6.7 µM in test [2].

In the case of `O=C([C@@H]1CCC(=O)N1c1cc(F)c(-c2noc(C(F)(F)F)n2)cc1F)N1CCCc2ccccc21` [Example 334, (5S)-1-{2,5-difluoro-4-[5-(trifluoromethyl)-1,2,4-oxadiazol-3-yl]phenyl}-5-(3,4-dihydroquinolin-1(2H)-ylcarbonyl)pyrrolidin-2-one], the IC50 in test [1] was found to be 4400 nM; in test [2], 19 µM.

For `O=C([C@@H]1CCC(=O)N1c1cc(F)c(-c2noc(C(F)(F)F)n2)cc1F)N1CCc2ccccc2C1` [Example 335, (5S)-1-{2,5-difluoro-4-[5-(trifluoromethyl)-1,2,4-oxadiazol-3-yl]phenyl}-5-(3,4-dihydroisoquinolin-2(1H)-ylcarbonyl)pyrrolidin-2-one], the IC50 was 1200 nM in test [1] and 7.4 µM in test [2].

Turning to `O=C([C@@H]1CCC(=O)N1c1cc(F)c(-c2noc(C(F)(F)F)n2)cc1F)N1CCCC1` [Example 336, (5S)-1-{2,5-difluoro-4-[5-(trifluoromethyl)-1,2,4-oxadiazol-3-yl]phenyl}-5-(pyrrolidin-1-ylcarbonyl)pyrrolidin-2-one], the IC50 is 10000 nM in test [1] and 26 µM in test [2].

`CC1(C)CCCN1C(=O)[C@@H]1CCC(=O)N1c1cc(F)c(-c2noc(C(F)(F)F)n2)cc1F` [Example 339, (5S)-1-{2,5-difluoro-4-[5-(trifluoromethyl)-1,2,4-oxadiazol-3-yl]phenyl}-5-[(2,2-dimethylpyrrolidin-1-yl)carbonyl]pyrrolidin-2-one]: the values for the 50% inhibitory concentration (IC50) in test [1] and in test [2] were 13000 nM and 45 µM, respectively.

As to `O=C([C@@H]1CCC(=O)N1c1cc(F)c(-c2noc(C(F)(F)F)n2)cc1F)N1CCC1` [Example 341, (5S)-5-(azetidin-1-ylcarbonyl)-1-{2,5-difluoro-4-[5-(trifluoromethyl)-1,2,4-oxadiazol-3-yl]phenyl}pyrrolidin-2-one], the concentration for half-maximal inhibition (IC50) in test [1] came out at 41000 nM; in test [2], 26 µM.

Turning to `CC1(C)CCCN1C(=O)[C@@H]1CCC(=O)N1c1ccc(-c2noc(C(F)(F)F)n2)c(F)c1` [Example 342, (5S)-5-[(2,2-dimethylpyrrolidin-1-yl)carbonyl]-1-{3-fluoro-4-[5-(trifluoromethyl)-1,2,4-oxadiazol-3-yl]phenyl}pyrrolidin-2-one], the IC50 came to 45000 nM in test [1] and 25 µM in test [2].

For `Cc1cccc(N2CCC(NCc3ccc(-c4noc(C(F)(F)F)n4)cc3)CC2)c1` [Example 349, 1-(3-methylphenyl)-N-({4-[5-(trifluoromethyl)-1,2,4-oxadiazol-3-yl]phenyl}methyl)piperidin-4-amine], the IC50 in test [1] came out at 730 nM; in test [2], 1.4 µM.

On to `CN1Cc2ccc(NCc3ccc(-c4noc(C(F)(F)F)n4)cn3)cc2C1=O` [Example 356, 2-methyl-6-[({5-[5-(trifluoromethyl)-1,2,4-oxadiazol-3-yl]pyridin-2-yl}methyl)amino]-2,3-dihydro-1H-isoindol-1-one], for which the IC50 in test [1] worked out at 280 nM; in test [2] it was 0.52 µM.

As to `FC(F)(F)c1nc(-c2ccc(CNc3ccc4nccn4c3)nc2)no1` [Example 357, N-({5-[5-(trifluoromethyl)-1,2,4-oxadiazol-3-yl]pyridin-2-yl}methyl)imidazo[1,2-a]pyridin-6-amine], the IC50 turned out to be 210 nM in test [1] and 0.96 µM in test [2].

For `Cn1ccc(NCc2ccc(-c3noc(C(F)(F)F)n3)cn2)cc1=O` [Example 358, 1-methyl-4-[({5-[5-(trifluoromethyl)-1,2,4-oxadiazol-3-yl]pyridin-2-yl}methyl)amino]pyridin-2(1H)-one], the values for the IC50 in test [1] and in test [2] were 890 nM and 2.4 µM, respectively.

As to `Cc1ccc(NCc2ccc(-c3noc(C(F)(F)F)n3)cn2)cn1` [Example 359, 6-methyl-N-({5-[5-(trifluoromethyl)-1,2,4-oxadiazol-3-yl]pyridin-2-yl}methyl)pyridin-3-amine], the IC50 in test [1] amounted to 430 nM; in test [2] it was 1.8 µM.

With `OCc1cc(NCc2ccc(-c3noc(C(F)(F)F)n3)cn2)ccc1F` [Example 361, {2-fluoro-5-[({5-[5-(trifluoromethyl)-1,2,4-oxadiazol-3-yl]pyridin-2-yl}methyl)amino]phenyl}methanol], the IC50 in test [1] was 520 nM; in test [2] it was 1.6 µM.

Consider `Cc1ccc(NCc2ccc(-c3noc(C(F)(F)F)n3)cn2)nn1` [Example 362, 6-methyl-N-({5-[5-(trifluoromethyl)-1,2,4-oxadiazol-3-yl]pyridin-2-yl}methyl)pyridazin-3-amine], for which the half-maximal inhibitory concentration (IC50) in test [1] worked out at 1400 nM; in test [2], 2.8 µM.

On to `COc1ccc(NCc2ccc(-c3noc(C(F)(F)F)n3)cn2)cn1` [Example 363, 6-methoxy-N-({5-[5-(trifluoromethyl)-1,2,4-oxadiazol-3-yl]pyridin-2-yl}methyl)pyridin-3-amine], for which the IC50 in test [1] worked out at 520 nM; in test [2] it was 3.4 µM.

Regarding `FC(F)(F)c1nc(-c2ccc(CNc3cc4ccccn4n3)nc2)no1` [Example 365, N-({5-[5-(trifluoromethyl)-1,2,4-oxadiazol-3-yl]pyridin-2-yl}methyl)pyrazolo[1,5-a]pyridin-2-amine], the results for the IC50 in test [1] and in test [2] were 1200 nM and 1.8 µM, respectively.

With `Cn1ncc(NCc2ccc(-c3noc(C(F)(F)F)n3)cn2)n1` [Example 366, 2-methyl-N-({5-[5-(trifluoromethyl)-1,2,4-oxadiazol-3-yl]pyridin-2-yl}methyl)-2H-1,2,3-triazol-4-amine], the half-maximal inhibitory concentration (IC50) was found to be 1300 nM in test [1] and 2.7 µM in test [2].

On to `OCc1ccnc(NCc2ccc(-c3noc(C(F)(F)F)n3)cn2)c1` [Example 367, {2-[({5-[5-(trifluoromethyl)-1,2,4-oxadiazol-3-yl]pyridin-2-yl}methyl)amino]pyridin-4-yl}methanol], for which the IC50 in test [1] is 820 nM; in test [2], 0.87 µM.

`FC(F)(F)c1nc(-c2ccc(CNc3cnccn3)nc2)no1` [Example 368, N-({5-[5-(trifluoromethyl)-1,2,4-oxadiazol-3-yl]pyridin-2-yl}methyl)pyrazin-2-amine]: the IC50 in test [1] was 1000 nM; in test [2], 0.89 µM.

`FC(F)(F)c1nc(-c2ccc(CNc3cncnc3)nc2)no1` [Example 369, N-({5-[5-(trifluoromethyl)-1,2,4-oxadiazol-3-yl]pyridin-2-yl}methyl)pyrimidin-5-amine]: the IC50 turned out to be 930 nM in test [1] and 0.96 µM in test [2].

In the case of `FC(F)(F)c1nc(-c2ccc(CNc3ccc4ccncc4c3)nc2)no1` [Example 370, N-({5-[5-(trifluoromethyl)-1,2,4-oxadiazol-3-yl]pyridin-2-yl}methyl)isoquinolin-7-amine], the IC50 in test [1] is 68 nM; in test [2] it was 0.86 µM.

Consider `O=C1NC(=O)[C@]2(CC[C@H](NCc3ccc(-c4noc(C(F)(F)F)n4)cn3)CC2)N1` [Example 376, (5s,8s)-8-[({5-[5-(trifluoromethyl)-1,2,4-oxadiazol-3-yl]pyridin-2-yl}methyl)amino]-1,3-diazaspiro[4.5]decane-2,4-dione], for which the IC50 is 3400 nM in test [1] and 3.9 µM in test [2].

In the case of `FC(F)(F)c1nc(-c2ccc(CNC3Cc4ccccc4C3)nc2)no1` [Example 378, N-({5-[5-(trifluoromethyl)-1,2,4-oxadiazol-3-yl]pyridin-2-yl}methyl)-2,3-dihydro-1H-inden-2-amine], the IC50 in test [1] came to 630 nM; in test [2] it was 4.2 µM.

With `FC(F)(F)c1nc(-c2ccc(CNC3CCN(c4ccccn4)CC3)nc2)no1` [Example 379, 1-(pyridin-2-yl)-N-({5-[5-(trifluoromethyl)-1,2,4-oxadiazol-3-yl]pyridin-2-yl}methyl)piperidin-4-amine], the values for the half-inhibitory concentration (IC50) in test [1] and in test [2] were 1900 nM and 7.7 µM, respectively.

As for `Cc1cc(NCc2ccc(-c3noc(C(F)(F)F)n3)cn2)on1` [Example 380, 3-methyl-N-({5-[5-(trifluoromethyl)-1,2,4-oxadiazol-3-yl]pyridin-2-yl}methyl)-1,2-oxazol-5-amine], the IC50 in test [1] was 930 nM; in test [2], 1.4 µM.

Consider `FC(F)(F)c1nc(-c2ccc(CNc3ccccn3)cc2)no1` [Example 382, N-{4-[5-(trifluoromethyl)-1,2,4-oxadiazol-3-yl]benzyl}pyridin-2-amine], for which the IC50 in test [1] was found to be 1600 nM; in test [2], 2.1 µM.

`FC(F)(F)c1nc(-c2ccc(CNc3cccnc3)cc2)no1` [Example 383, N-{4-[5-(trifluoromethyl)-1,2,4-oxadiazol-3-yl]benzyl}pyridin-3-amine]: the results for the IC50 in test [1] and in test [2] were 1700 nM and 3.1 µM, respectively.

On to `FC(F)(F)c1nc(-c2ccc(CNc3ncccn3)cc2)no1` [Example 386, N-{4-[5-(trifluoromethyl)-1,2,4-oxadiazol-3-yl]benzyl}pyrimidin-2-amine], for which the figures for the IC50 in test [1] and in test [2] were 5300 nM and 3.9 µM, respectively.
